Patent publication US20200093764A1, “TREATMENT OF ASTHMA WITH CYSTEAMINE” (CHILDREN'S HOSPITAL MEDICAL CENTER, priority 2017, published 2020)

Experiments:
Type in all cases: in vivo
[1] = tested on: WT BALB/c and VNN1 KO mice; assay: Prophylactic cysteamine treatment in HDM-challenged experimental asthma model (Example 1); settings: for asthma development: cysteamine hydrochloride 50 mg/kg i.p. every day, HDM 25 μg i.t. 3 times a week for 3 weeks; for airway hyper-responsiveness (AHR) development: mice, oral or IP administration, methacholine challenge, FlexiVent dynamic resistance
Description: Steroid non-responsive mice (e.g., vanin 1 (VNN1) knock-out (KO) mice) and normal mice (e.g., wild type (WT) BALB/c mice) were used in an experimental asthma model. Since VNN1 KO mice lack tissue cysteamine, these mice were used to determine whether replacement of cysteamine would be sufficient to restore responsiveness to a steroid treatment.
WT BALB/c and VNN1 KO mice were started on cysteamine replacement treatment (e.g., as illustrated in FIG. 1A) one day prior to the start of intratracheal (i.t.) challenges. Mice then received one intraperitoneal (i.p.) injection of cysteamine hydrochloride (50 mg/kg) or saline every day. Mice were challenged 3 times a week for 3 weeks to an allergen (e.g., house dust mite (HDM, 25 μg in 50 μl saline)) or saline. A subset of mice from each group received a corticosteroid (e.g., dexamethasone (3 mg/kg)) treatment during the last 4 days of the experiment.
To determine the effectiveness of the treatment, airway responsiveness was measured as follows. 24 hours after the last challenge, invasive measurements were made with the FlexiVent apparatus (SCIREQ). Mice were anesthetized with ketamine, xylazine, and acepromazine (100, 20, and 10 mg/mL, respectively, mixed at a ratio of 4:1:1). Mouse tracheas were cannulated with a 19-gauge blunt needle, and the mice were ventilated at 150 breaths/min and 3.0 cm H2O positive end-expiratory pressure. Two total lung capacity perturbations were then performed for airway recruitment before baseline measurement, and subsequent methacholine challenges were performed. Dynamic resistance was assessed after exposure to increasing concentrations of aerosolized methacholine (0, 12.5 and 25 mg/mL). The average of the 3 highest dynamic resistance values with a coefficient of determination of 0.9 or greater (as determined by using FlexiVent software) was used to determine the dose-response curve.

WT BALB/c mice [2] = assay: Cysteamine therapeutic treatment after HDM-induced asthma is established (Example 2); settings: cysteamine 50 mg/kg for seven days
Experimental: (§1) WT BALB/c mice underwent 6 intratracheal challenges to an allergen (e.g., HDM (25 μg)) to induce asthma development. Control mice underwent 6 intratracheal challenges to saline instead. The next day a subset of mice received cysteamine (50 mg/kg) treatment for seven days (on challenge days, mice received treatment 30 minutes prior to challenge). See FIG. 2A for the treatment and challenge protocol. The mice were sacrificed 24 hours after the last challenge.
(§2) To determine the effectiveness of the treatment, airway responsiveness was measured as follows. 24 hours after the last challenge, invasive measurements were made with the FlexiVent apparatus (SCIREQ). Dynamic resistance was assessed after exposure to increasing concentrations of aerosolized methacholine (0, 3.125, 6.25, 12.5, and 25 mg/kg).
Bronchoalveolar lavage was performed by means of tracheal cannulation. Lungs were lavaged with 1 mL of 1×HBSS. The collected BALF was centrifuged, and total cell numbers were counted with a hemocytometer. Cells were spun onto slides and stained with the HEMA3 stain set. After the slides were cover slipped and de-identified, 200 cells were counted, and the total number of each cell type was calculated.
(§3) To observe Th2, Th17, and Th1 cytokine production, lung cells were ex vivo stimulated with phorbol 12-myristate 13-acetate (PMA)+ionomycin (0.05 μg/mL and 0.50 m/mL, respectively) for an hour prior to the addition of Brefeldin-A for an additional 2.5 hours. Cells were stained with combinations of CD4-FITC, γδT-cell receptor-PE/Cy7, CD3-AF700, CD44-Pacific Blue, and Live/dead-BV510. After fixation and permeabilization cells were intracellularly stained with IL-13-PE, IL-17A-AF647, IFN-γ-PerCP5.5. Image an data acquisition was done on a FACSCanto III and analyzed with FlowJo software.

WT BALB/c mice [3] = assay: Lower doses of cysteamine (Cystagon) to block allergen-induced asthma exacerbation (Example 3)
Experimental: Control mice underwent 9 intratracheal challenges to saline instead. Once asthma was established, a subset of mice received cysteamine (e.g., Cystagon®, which corresponds to cysteamine bitartrate) at various doses (6.25, 12.5, 25, or 50 mg/kg) or saline vehicle intraperitoneal (i.p.) treatment 3 times every day for 2 weeks. On the 14th day, all mice received a single HDM recall challenge. Mice received scheduled i.p. treatment prior to airway responsiveness measurement.
as §2, with “last challenge” for “last challenge,”, “(0,” for “(0, 3.125,”, “12.5, 25,” for “12.5,”, “and 50” for “and 25”
as §3, with “observe Th2/Th17” for “observe Th2, Th17, and Th1”, “0.50 μg/mL,” for “0.50 m/mL,”, “and premeabilization” for “and permeabilization”, “Image and” for “Image an”

[4] = Drug kinetics of cysteamine in mouse serum (Example 4)
Description: FIG. 4A is a table showing drug kinetics in mouse serum after administration of cysteamine. FIG. 4B is a chart showing the cysteamine concentrations in μmol/L over the time after the ends of cysteamine infusion in minutes.

WT BALB/c mice [5] = assay: Cysteamine vs. corticosteroid (dexamethasone) in HDM-induced asthma (Example 5)
Experimental: as §1, with “When asthma was established,” for “The next day”, “A subset of mice received corticosteroid (e.g., dexamethasone)” for “See FIG. 2A for the”, “(3 mg/kg) during” for “and challenge protocol. The mice were sacrificed 24 hours after”, “four days.” for “challenge.”
as §2, with “(0,” for “(0, 3.125, 6.25,”, “50” for “25”
as §3, with “observe Th2/Th17” for “observe Th2, Th17, and Th1”, “additional two and a half” for “additional 2.5”, “and premeabilization” for “and permeabilization”, “Image and” for “Image an”

WT BALB/c mice [6] = assay: Oral cysteamine treatment in HDM-induced asthma with recall challenge (Example 6)
Experimental: Control mice underwent 9 intratracheal challenges to saline instead. Once asthma was established, a subset of mice received cysteamine (6.25 or 12.5 mg/kg) or saline vehicle oral treatment 4 times a day for 2 weeks. On the 14th day, all mice received a single HDM recall challenge. Mice received scheduled oral treatment prior to airway responsiveness measurement. To determine the effectiveness of the treatment, airway responsiveness was measured as follows. 24 hours after the last challenge invasive measurements were made with the FlexiVent apparatus (SCIREQ). Dynamic resistance was assessed after exposure to increasing concentrations of aerosolized methacholine (0, 6.25, 12.5, 25, and 50 mg/kg). Bronchoalveolar lavage was performed by means of tracheal cannulation. Lungs were lavaged with 1 mL of 1×HBSS. The collected BALF was centrifuged, and total cell numbers counted with a hemocytometer. Lungs were removed, and the upper right lobe was minced and incubated at 37° C. for 30 minutes in 1 mL of RPMI 1640 containing Liberase TL (0.5 mg/mL) and DNAse I (0.5 mg/mL). Lung cells were passed through a 70-μm cell strainer with a syringe rubber, and the strainer was washed with 5 mL of RPMI plus DNAse I media. Cells were centrifuged and re-suspended in 1 mL of PBS plus 0.5% BSA plus 2 mmol/L EDTA before being counted on a hemocytometer.

[7] = mice with asthma, Cystagon i.p. for 2 weeks

SMILES: NCCS [Cysteamine, 2-aminoethanethiol]
- asthma development ([1]; VNN1 KO mice): significantly prevented asthma
- airway hyper-responsiveness (AHR) development [1]: blocked airway hyper-responsiveness (AHR) development
- asthma development ([1]; normal (WT BALB/c) mice): significantly prevented asthma
- asthma occurrence (WT BALB/c mice [2]; mice with asthma (6 i.t. HDM challenges)): significantly decrease asthma occurrence
- airway inflammation (WT BALB/c mice [2]; mice with asthma): reduced airway inflammation
- presence of eosinophils and neutrophils in the bronchoalveolar lavage fluid (WT BALB/c mice [2]; mice with asthma): decreased the presence of eosinophils and neutrophils
- presence of pathogenic T effector populations (Th2/Th17) in the lungs (WT BALB/c mice [2]; mice with asthma, flow cytometry after PMA+ionomycin): reduction in the presence of pathogenic T effector populations (Th2/Th17)
- airway hyper-responsiveness (AHR) development (WT BALB/c mice [2]; mice with asthma, methacholine challenge): blocked airway hyper-responsiveness (AHR) development
- reducing AHR (WT BALB/c mice [3]; 6.25 mg/kg dose, Cystagon i.p. for 2 weeks, HDM recall challenge): effective at reducing AHR
- dose at which maximal effectiveness on AHR was achieved (WT BALB/c mice [3]; Cystagon i.p. for 2 weeks, doses tested 6.25, 12.5, 25, 50 mg/kg): 12.5 mg/kg/day
- presence of eosinophils and neutrophils in the bronchoalveolar lavage fluid (WT BALB/c mice [3]; cysteamine at 6.25, 12.5, and 50 mg/kg, i.p. for 2 weeks): significantly decreased the presence of eosinophils and neutrophils
- blocking AHR (WT BALB/c mice [3]; mice with asthma (9 i.t. HDM), Cystagon (cysteamine bitartrate) 6.25-50 mg/kg i.p. 3 times every day for 2 weeks, HDM recall challenge): effective at blocking AHR
- airway inflammation (WT BALB/c mice [3]; [7]): reduced airway inflammation
- presence of pathogenic T effector populations (Th2/Th17) in the lungs (WT BALB/c mice [3]; [7]): significantly decreased the presence of pathogenic T effector populations (Th2/Th17)
- cysteamine concentration in mouse serum in the time after infusion ended ([4]; mouse serum, after end of cysteamine infusion): rapidly degraded
- half-life ([4]; stated in Example 3 results as reason for q.i.d. dosing): short half-life
- AHR (WT BALB/c mice [5]; WT mice with asthma (6 i.t. HDM), cysteamine 50 mg/kg for seven days): decreased AHR
- presence of Th1, Th2, and Th17 cells in the lungs (WT BALB/c mice [5]; WT mice, cysteamine 50 mg/kg for seven days): significantly decreased the presence of Th1, Th2, and Th17 cells
- difference between the cysteamine and dexamethasone treatment groups (WT BALB/c mice [5]; cysteamine 50 mg/kg seven days vs dexamethasone 3 mg/kg last four days): no significant differences
- AHR (WT BALB/c mice [6]; WT mice with asthma (9 i.t. HDM), cysteamine 6.25 or 12.5 mg/kg oral 4 times a day for 2 weeks, HDM recall challenge): decreased AHR
- airway inflammation (BALF counts, lung cells) (WT BALB/c mice [6]; WT mice with asthma, cysteamine 6.25 or 12.5 mg/kg oral 4 times a day for 2 weeks): decreased
- oral treatment compared with IP injection (WT BALB/c mice [6]; oral cysteamine 6.25 or 12.5 mg/kg 4 times a day for 2 weeks): equivalent to IP injection

SMILES: NCCSSCCN [cystamine]
- airway hyper-responsiveness (AHR) development [1]: blocked airway hyper-responsiveness (AHR) development
